For the assay, the target named is T1, MAGE-A11:PCF11 interaction (GST-MAGE-A11 and FAM-PCF11_4) (Homo sapiens, UniProt P43364).
T1 construct: GST-MAGE-A11 MHD (human MAGE-A11 MHD amino acid 218-429); made in house; host or cells: E. coli BL21(DE3)
T1 sequence (P43364 218-429): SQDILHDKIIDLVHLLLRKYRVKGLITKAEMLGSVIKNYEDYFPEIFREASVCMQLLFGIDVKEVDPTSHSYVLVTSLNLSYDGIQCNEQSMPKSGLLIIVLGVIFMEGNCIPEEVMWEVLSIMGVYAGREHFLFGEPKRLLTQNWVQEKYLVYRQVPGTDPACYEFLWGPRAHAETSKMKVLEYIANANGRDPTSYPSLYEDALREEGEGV
Description: TR-FRET primary / single point screen at 15 µM. The class given is binding. The procedure: The TR-FRET assay buffer with a formula of 50 mM Tris pH 7.5, 20 mM MgCl2, 0.1 mg/ml BSA and 1 mM DTT was freshly prepared before each experiment. All TR-FRET assays were performed in black 384-well plates with 20 µl/well assay volume in the TR-FRET assay buffer at room temperature (~25 °C). All peptides or compounds were solubilized in DMSO. To test the competitive activity of peptides or compounds against the interaction between GST-MAGE-A11 MHD and FAM-PCF11_4 peptide, 10 µl/well peptide or compound at specified concentration was dispensed into a black 384-well low volume plate, followed by 5 µl/well FAM-PCF11_4 (800 nM), 5 µl/well Tb-anti-GST (20 nM), and GST-MAGE-A11 MHD (20 nM). The assay components in each well was then mixed by shaking the plate on an IKA MTS 2/4 digital microtiter plate shaker (IKA Works; Wilmington, NC, USA) for 1 min. The plate was further centrifuged in an Eppendorf 5810 centrifuge with an A-4-62 swing-bucket rotor (Eppendorf AG, Hamburg, Germany) at 201 g for 30 s. The plate was then incubated for 90 min with a lid to avoid light exposure to the assay components. After incubation, the fluorescent emission signals at 520 nm and 490 nm channels of individual wells were measured with a PHERAstar FS plate reader (BMG Labtech; Durham, NC, USA) by using a 340 nm excitation filter, 100 µs delay time, and 200 µs integration time. The TR-FRET fluorescence emission ratio (TR-FRET signal) for each well was presented as 10,000 × 520 nm/490 nm, which was used directly for curve fitting, or further converted to %Inhibition based on the respective positive and negative controls. The graphic software GraphPad Prism 4.81 (GraphPad Software; La Jolla, CA, USA) was used to generate curves and derive IC50 values of tested peptides or compounds, if applicable. TR-FRET screen for identifying MAGE-A11 small molecule inhibitors was performed as follows. The primary one-concentration screening and subsequent 10 or 20-concentration dose-response tests were accomplished with an automated High Throughput Screening system (HighRes Biosolutions, Beverly, MA)[30]. In the primary screening, 15 µl/well FAM-PCF11_4 (267 nM) was first dispensed with a Multidrop Combi Reagent Dispenser (Thermo Fisher Scientific, Waltham, MA) to black 384-well low-volume assay plates. The plates were spun down with a Velocity11 VSpin microplate centrifuge (Agilent Technologies, Santa Clara, CA). In total, 30 nl/well of 10 mM compound/DMSO solutions, or DMSO alone, were transferred from compound plates (the St. Jude FDA drug and bioactive library, Drug-like library and Lead-like library) or a control plate to the assay plates with a Pin Tool (V&P Scientific, San Diego, CA). The compounds were arrayed in columns 3–12 and columns 15–24 of compound plates. The controls were arrayed in columns 1, 2, 13, and 14 of a compound plate. In all, 5 µl/well Tb-anti-GST (20 nM) and GST-MAGE-A11 (20 nM) or 5 µl/well Tb-anti-GST (20 nM) alone was then dispensed to selected wells with a Multidrop Combi Reagent Dispenser. The final assay volume was 20 µl/well. […] The final tested compound concentration was 15 µM. The final FAM-PCF11_4 concentration was 200 nM and the final Tb-anti-GST concentration was 5 nM. The final GST-MAGE-A11 concentration was 5 nM except for those selected positive control wells in which GST-MAGE-A11 was not presented. The plates were then shaken with a big bear shaker (Big Bear Automation, Santa Clara, California) and spun down with the Velocity11 VSpin microplate centrifuge for 20 s. The plates were then incubated at room temperature in a Liconic incubator (Liconic US, Woburn, MA) for 90 min. The TR-FRET signals for individual wells were measured with a PHERAstar FS plate reader. The %Inhibition of each tested inhibitor was calculated by using Eq. 1. Those inhibitors with %Inhibition >30% in the primary screening were selected for further dose-response test, along with additional newly synthesized compounds. […]
(In general: In TR-FRET formats the signal depends on donor and acceptor labels being close together.)

The mark [1] stands for this setting: single point TR-FRET screening of 797 quinoline compounds against MAGE-A11:PCF11.

With `CCN1CCN(c2c(S(=O)(=O)c3ccc(OC)cc3)cnc3cc(OC)c(OC)cc23)CC1` [SJ000083972], the “percent inhibition (TR-FRET)” value under setting [1] was found to be 7.411.

For the compound `Cc1ccc2ncc(S(=O)(=O)c3ccccc3)c(N3CCN(c4ccccc4)CC3)c2c1` [SJ000083973], the “percent inhibition (TR-FRET)” value under setting [1] is recorded as -29.7042.

Turning to `COc1ccc2ncc(S(=O)(=O)c3ccccc3)c(N3CCN(c4ccccc4)CC3)c2c1` [SJ000083974], the “percent inhibition (TR-FRET)” value under setting [1] is listed as -132.977.

Take `CCOc1ccc2ncc(S(=O)(=O)c3ccccc3)c(N3CCN(c4ccccc4)CC3)c2c1` [SJ000083975]: the “percent inhibition (TR-FRET)” value under setting [1] is -12.0602.

For the compound `O=S(=O)(c1ccccc1)c1cnc2ccc(F)cc2c1N1CCN(c2ccccc2)CC1` [SJ000083976], the “percent inhibition (TR-FRET)” value under setting [1] is -31.1045.

As to `O=S(=O)(c1ccccc1)c1cnc2ccc(Cl)cc2c1N1CCN(c2ccccc2)CC1` [SJ000083977], under setting [1], the “percent inhibition (TR-FRET)” value was -15.701.

As for `COc1ccc2ncc(S(=O)(=O)c3ccccc3)c(N3CCN(c4ccc(F)cc4)CC3)c2c1` [SJ000083978], the “percent inhibition (TR-FRET)” value under setting [1] is given as -133.117.

On to `CCOc1ccc2ncc(S(=O)(=O)c3ccccc3)c(N3CCN(c4ccc(F)cc4)CC3)c2c1` [SJ000083979], for which, under setting [1], the “percent inhibition (TR-FRET)” value is recorded as -181.288.

On to `O=S(=O)(c1ccccc1)c1cnc2ccc(F)cc2c1N1CCN(c2ccc(F)cc2)CC1` [SJ000083980], for which the “percent inhibition (TR-FRET)” value under setting [1] is -11.08.

In the case of `COc1ccc(N2CCN(c3c(S(=O)(=O)c4ccccc4)cnc4ccc(C)cc34)CC2)cc1` [SJ000083981], the “percent inhibition (TR-FRET)” value under setting [1] was -37.966.

With `COc1ccc(N2CCN(c3c(S(=O)(=O)c4ccccc4)cnc4ccc(F)cc34)CC2)cc1` [SJ000083982], under setting [1], the “percent inhibition (TR-FRET)” value was -32.8549.

As for `COc1ccc(N2CCN(c3c(S(=O)(=O)c4ccccc4)cnc4ccc(Cl)cc34)CC2)cc1` [SJ000083983], the “percent inhibition (TR-FRET)” value under setting [1] is on record as -17.9415.

For `CN(C)c1cc(NC(=O)CN2CCOCC2)c2ccccc2n1` [SJ000111677], the “percent inhibition (TR-FRET)” value under setting [1] is 4.988.

Turning to `CN(C)c1cc(NC(=O)CNC(C)(C)CC(C)(C)C)c2ccccc2n1` [SJ000111678], the “percent inhibition (TR-FRET)” value under setting [1] is listed as 10.6249.

For `Cc1cc(NC(=O)CN2CCN(C(=O)c3ccco3)CC2)c2ccccc2n1` [SJ000111679], the “percent inhibition (TR-FRET)” value under setting [1] is recorded as -1.072.

Turning to `Cc1cc(NC(=O)CN2CCN(C)CC2)c2ccccc2n1` [SJ000111680], under setting [1], the “percent inhibition (TR-FRET)” value amounted to 4.6472.

As to `CCc1nc2ccccc2c(NC(=O)CN2CCN(c3ccccc3)CC2)c1C` [SJ000111681], the “percent inhibition (TR-FRET)” value under setting [1] is 6.8942.

With `CCc1nc2ccccc2c(NC(=O)CN2CCCCC2)c1C` [SJ000111682], the “percent inhibition (TR-FRET)” value under setting [1] was 1.593.

Regarding `O=C(CN1CCN(C(=O)c2ccccc2)CC1)Nc1c2c(nc3ccccc13)N(c1cccc(Cl)c1)CC2` [SJ000111683], the “percent inhibition (TR-FRET)” value under setting [1] is given as -264.327.

As to `O=C(CN1CCN(C(c2ccccc2)c2ccccc2)CC1)Nc1c2c(nc3ccccc13)CCC2` [SJ000111684], under setting [1], the “percent inhibition (TR-FRET)” value is 11.85.

Regarding `COc1ccc(-c2csc(N3CCN(c4cc(C)nc5ccccc45)CC3)n2)cc1OC` [SJ000114009], under setting [1], the “percent inhibition (TR-FRET)” value is given as -53.4343.

In the case of `Cc1ccc(S(=O)(=O)c2cnc3ccccc3c2N2CCN(c3ccccc3)CC2)cc1` [SJ000117047], under setting [1], the “percent inhibition (TR-FRET)” value is -6.567.

On to `COc1ccc2ncc(S(=O)(=O)c3ccc(C)cc3)c(N3CCN(c4ccccc4)CC3)c2c1` [SJ000117048], for which the “percent inhibition (TR-FRET)” value under setting [1] is -85.5732.

In the case of `CCOc1ccc2ncc(S(=O)(=O)c3ccc(C)cc3)c(N3CCN(c4ccccc4)CC3)c2c1` [SJ000117049], the “percent inhibition (TR-FRET)” value under setting [1] is given as -45.3213.

For the compound `Cc1ccc(S(=O)(=O)c2cnc3ccc(Cl)cc3c2N2CCN(c3ccccc3)CC2)cc1` [SJ000117050], under setting [1], the “percent inhibition (TR-FRET)” value was -3.321.

As to `COc1ccc2ncc(S(=O)(=O)c3ccc(C)c(C)c3)c(N3CCN(c4ccccc4)CC3)c2c1` [SJ000117051], under setting [1], the “percent inhibition (TR-FRET)” value is listed as -52.476.

Take `Cc1ccc(S(=O)(=O)c2cnc3ccc(F)cc3c2N2CCN(c3ccccc3)CC2)cc1C` [SJ000117052]: the “percent inhibition (TR-FRET)” value under setting [1] is listed as -16.9013.

With `CCc1ccc(S(=O)(=O)c2cnc3ccccc3c2N2CCN(c3ccccc3)CC2)cc1` [SJ000117053], under setting [1], the “percent inhibition (TR-FRET)” value is -21.2074.

Take `CCOc1ccc2ncc(S(=O)(=O)c3ccc(Cl)cc3)c(N3CCN(c4ccccc4)CC3)c2c1` [SJ000117054]: where the note is “single point TR-FRET screening of quinoline compounds against MAGE-A11:PCF11”, the “percent inhibition (TR-FRET)” value is on record as -446.911.

`O=S(=O)(c1ccc(Cl)cc1)c1cnc2ccc(F)cc2c1N1CCN(c2ccccc2)CC1` [SJ000117055]: the “percent inhibition (TR-FRET)” value under setting [1] is reported as 2.112.

On to `CCc1ccc2ncc(S(=O)(=O)c3ccc(OC)cc3)c(N3CCN(c4ccccc4)CC3)c2c1` [SJ000117056], for which the “percent inhibition (TR-FRET)” value under setting [1] is given as -2.791.

In the case of `Cc1ccc(S(=O)(=O)c2cnc3ccccc3c2N2CCN(c3ccc(F)cc3)CC2)cc1` [SJ000117057], the “percent inhibition (TR-FRET)” value under setting [1] is -20.6111.

Turning to `Cc1ccc(S(=O)(=O)c2cnc3ccc(C)cc3c2N2CCN(c3ccc(F)cc3)CC2)cc1` [SJ000117058], the “percent inhibition (TR-FRET)” value under setting [1] is given as -4.068.

On to `COc1ccc2ncc(S(=O)(=O)c3ccc(C)cc3)c(N3CCN(c4ccc(F)cc4)CC3)c2c1` [SJ000117059], for which the “percent inhibition (TR-FRET)” value under setting [1] was -118.524.

As for `CCOc1ccc2ncc(S(=O)(=O)c3ccc(C)cc3)c(N3CCN(c4ccc(F)cc4)CC3)c2c1` [SJ000117060], the “percent inhibition (TR-FRET)” value under setting [1] is -11.0715.

For `Cc1ccc(S(=O)(=O)c2cnc3ccc(F)cc3c2N2CCN(c3ccc(F)cc3)CC2)cc1` [SJ000117061], the “percent inhibition (TR-FRET)” value under setting [1] is recorded as -70.4952.

For the compound `Cc1ccc(S(=O)(=O)c2cnc3ccccc3c2N2CCN(c3ccc(F)cc3)CC2)cc1C` [SJ000117062], under setting [1], the “percent inhibition (TR-FRET)” value is -54.8642.

In the case of `O=S(=O)(c1ccc(F)cc1)c1cnc2ccc(Cl)cc2c1N1CCN(c2ccc(F)cc2)CC1` [SJ000117063], the “percent inhibition (TR-FRET)” value under setting [1] was -4.205.

For `CCc1ccc2ncc(S(=O)(=O)c3ccc(OC)cc3)c(N3CCN(c4ccc(F)cc4)CC3)c2c1` [SJ000117064], the “percent inhibition (TR-FRET)” value under setting [1] was -9.084.

Turning to `COc1ccccc1N1CCN(c2c(S(=O)(=O)c3ccc(C)cc3)cnc3ccccc23)CC1` [SJ000117065], the “percent inhibition (TR-FRET)” value under setting [1] is -8.687.

As for `COc1ccccc1N1CCN(c2c(S(=O)(=O)c3ccc(C)cc3)cnc3ccc(C)cc23)CC1` [SJ000117066], the “percent inhibition (TR-FRET)” value under setting [1] was -92.8867.

Turning to `COc1ccccc1N1CCN(c2c(S(=O)(=O)c3ccc(C)cc3)cnc3ccc(Cl)cc23)CC1` [SJ000117067], the “percent inhibition (TR-FRET)” value under setting [1] is reported as -12.8602.

`COc1ccccc1N1CCN(c2c(S(=O)(=O)c3ccc(C)c(C)c3)cnc3ccccc23)CC1` [SJ000117068]: the “percent inhibition (TR-FRET)” value under setting [1] is -5.706.

The values are drawn from article PMC7529893, “Structural basis for substrate recognition and chemical inhibition of oncogenic MAGE ubiquitin ligases” (Nature Communications, 2020).
